Structures can show the parent of a compound that is named as a salt. One block for each compound: values may come before it.
Key:
MR1T cell clones [1] = test: MR1T cell activation assay with drug-treated THP-1 cells; assay type: cell-based, human; settings: for stimulation of TC5A87 MR1T clone (IFN-γ): THP-1 cells incubated 18 h with drug (FIG. 7d, f, g); for T cell response in MR1T cell clones: THP-1 cells treated with drug; for reactivity of DGB129 clone to drug-treated THP-1 cells: drug alone, 25 μM EHNA, 10 μM MPA, 20 μM BBG (FIG. 9H); for activation of MR1T-cell clones TC5A87, DGB129, MCA3C3: THP-1 cells with Doxorubicin 75 nM or Paclitaxel 5 μM and nucleosides (dAdenosine and Guanosine, both 150 μM)
Method: (§1) MR1T cells (5×10^4/well unless otherwise indicated) were co-cultured with the indicated APCs (10^5 cells per well unless otherwise indicated) for 18 h in 120 μL volume in triplicate. In some experiments, anti-MR1 mAbs (clone 26.5, purified and endotoxin-free mouse IgG2a, (Lepore et al., 2014)) or mouse IgG2a isotype control mAbs (LEAF, Biolegend, Cat #401504) (both at 30 μg/mL) were added and incubated for 30 min at 37° C. prior to the addition of T cells.
(§2) In experiments with mycophenolic acid (10 μM), EHNA (25 μM), S-p-bromobenzylglutathione cyclopentyl diester (BBG, 20 μM) (all from Sigma-Aldrich), THP-1 cells (1×10^6/mL) were treated with the indicated concentrations of drugs in complete medium at 37° C. for 18 h before being washed twice with PBS, counted and used for T-cell activation. In experiments where THP-1 cells (1×10^6/mL) were treated with doxorubicin (75 nM) and paclitaxel (5 μM) (both from Sigma-Aldrich), the cells were incubated at 37° C. for 18 h before being washed twice with PBS, counted, and incubated for 2 h with vehicle or 150 μM dAdo and 150 μM guanosine (Sigma-Aldrich) prior to T-cell addition. In experiments where fixed A375-MR1 cells were used to activate MR1T cells, APCs (4×10^5/mL) were treated with apocynin (APO, 100 μM), L-glutathione reduced (GSH, 4 mM), N-acetyl cysteine (NAC, 4 mM), L-buthionine-sulfoximine (BSO, 400 μM) mercaptosuccinic acid (MSA, 3.3 μM), ML-210 (6 μM) or 1S,3R-RSL3 (RSL3, 1 μM), hydralazine hydrochloride (100 μM) or aminoguanidine hemisulfate salt (5 mM) for 18 h at 37° C. before being washed twice with PBS, fixed with glutaraldehyde, counted and used for MR1T cell stimulation.
(§3) The following human cytokines were assessed by ELISA using specific mAbs: GM-CSF (purified clone BVD2-23B6 and biotinylated clone BVD2-21C11, Biolegend Cat #502202 and 502304, respectively), IFN-γ (purified clone MD-1 and biotinylated clone 4S.B3, Biolegend Cat #507502 and 502504, respectively), IL-13 (purified clone JES10-5A2 and biotinylated clone SB126d, SouthernBiotech Cat #10125-01 and 15930-08, respectively).

MR1T cell clones [2] = test: Competition assay for stimulation of MR1T cell clones; assay type: cell-based, human; settings: APCs with compound 2 h (3 doses), then antigen at optimal concentration, cytokine ELISA
Method: As positive control for competition with antigens, Ac-6-FP was used (100 μM). Supernatants were collected after 24 h for cytokine analysis measured by ELISA.

[3] = target: T1, MR1 surface expression on THP-1 MR1 cells (Homo sapiens, UniProt Q95460); test: Cell surface MR1 modulation on APCs (flow cytometry, anti-MR1 mAb 26.5); assay type: cell-based; settings: THP-1 MR1 cells, 3 h at 37° C., 3 doses each
T1 construct: expressed in transfected cells; host or cells: THP-1 (ATCC TIB-202) stably expressing MR1 (THP1-MR1)
Method: […] […] For each condition, net MFI was calculated subtracting isotype MFI from anti-MR1 MFI and fold change of cells treated with synthetic molecules over cells treated with vehicle was calculated.

MR1T cell clones [4] = test: MR1T cell activation assay with THP-1 cells incubated with compounds (cytokine ELISA); assay type: cell-based, human
Method: MR1T cells (5×10^4/well unless otherwise indicated) were co-cultured with the indicated APCs (10^5 cells per well unless otherwise indicated) for 18 h in 120 μL volume in triplicate.
When nucleobases, nucleosides or nucleotides (all 250 μM) and synthetic compounds M3ADE, OPdA, M1G or OPdC were used to stimulate T cells, the THP-1 cells (10^5/well) were cultured 2 h with the indicated molecules or medium only, prior to T-cell addition. When a single concentration of synthetic antigens was used, 100 μM OPdA, 100 μM OPdC and 13 μM M1G were used for all clones, while 100 μM M3ADE was used for all clones except DGB129, AC1A4, AC1B76 and AVA46 for which 1 μM was used.

MR1T cell clones [5] = test: MR1T cell activation assay with treated and fixed A375-MR1 cells; assay type: cell-based, human; settings: 18 h treatment before fixation; concentrations (FIG. 10D-L)
Method: as §1, §2, §3

MAIT clone MRC25 = test: Control stimulation of MAIT clone MRC25; assay type: cell-based, human; settings: for MAIT cell activation: A375-MR1 cells treated with carbonyl scavengers (FIG. 16E)
Method: In some experiments, MAIT cells were stimulated by APCs pulsed 3 h with 5-OP-RU as previously described or with 30 μM 6,7-dimethyl-8-ribityllumazine (Cayman Chemical Cat #23370).

THP-1 cells = test: ROS production measurement (CM-H2DCFDA); assay type: cell-based, human; settings: 75 nM Doxorubicin or 5 μM Paclitaxel, 18 h (FIG. 17A)
Method: CM-H2DCFDA (Thermo Fisher Scientific) was used to assess ROS production in cell upon cell treatment with Doxorubicin and Paclitaxel. THP-1 cells ([…]) were labelled with 10 μM CM-H2DCFDA for 30 min at 37° C. in the dark, then washed with PBS and resuspended in complete medium. 10^5 cells were seeded per well and treated with 75 nM Doxorubicin, 5 μM Paclitaxel or vehicle for 18 h at 37° C. Phorbol 12-myristate 13-acetate (PMA, 50 ng/mL) was used as positive control.

SMILES: CCCCCC[C@@H]([C@@H](C)O)n1cnc2c(N)ncnc21 (racemic) [EHNA, erythro-9-(2-hydroxy-3-nonyl) adenine]
stimulation of TC5A87 MR1T clone (IFN-γ) (MR1T cell clones [1]): induces the stimulation | T cell response in MR1T cell clones (MR1T cell clones [1]): induced a strong stimulation | reactivity of DGB129 clone to drug-treated THP-1 cells (MR1T cell clones [1]): reacted

SMILES: NC(CCC(=O)NC(CSCc1ccc(Br)cc1)C(=O)NCC(=O)OC1CCCC1)C(=O)OC1CCCC1 (stereo not drawn) [BBG, S-p-bromobenzylglutathione cyclopentyl diester]
IFN-γ release of both MR1T cell clones to THP-1 cells (MR1T cell clones [1]; BBG in combination with each of MPA and EHNA, clones TC5A87 and DGB129 (FIG. 9G, H)): significantly enhanced | reactivity of DGB129 clone to drug-treated THP-1 cells (MR1T cell clones [1]): reacted

MRI upregulation [3]: YES
SMILES: C[C@@H](O)[C@H](NC(=O)Nc1ncnc2c1ncn2[C@@H]1O[C@H](CO)[C@@H](O)[C@H]1O)C(=O)O [Cmpd 5, N6-threonylcarbamoyladenosine]
Competition (MR1T cell clones [2]): YES | Reactive T cells isolated (MR1T cell clones [4]): YES

MRI upregulation [3]: YES
SMILES: CC(C)=CCNc1ncnc2c1ncn2[C@@H]1O[C@H](CO)C(O)C1O (stereo partly drawn) [Cmpd 6, N6-isopent-2-enyladenosine]
Competition (MR1T cell clones [2]): YES | Reactive T cells isolated (MR1T cell clones [4]): YES

MRI upregulation [3]: YES
SMILES: C[C@@H](O)[C@H](NC(=O)N(C)c1ncnc2c1ncn2[C@@H]1O[C@H](CO)[C@@H](O)[C@H]1O)C(=O)O [Cmpd 10, N6-methyl-N6-threonylcarbamoyladenosine]
Competition (MR1T cell clones [2]): YES | Reactive T cells isolated (MR1T cell clones [4]): YES

MRI upregulation [3]: YES
SMILES: CN(C)c1nc2c(ncn2[C@@H]2O[C@H](CO)[C@@H](O)[C@H]2O)c(=O)[nH]1 [Cmpd 19, N2,N2-dimethylguanosine]
Competition (MR1T cell clones [2]): YES | Reactive T cells isolated (MR1T cell clones [4]): YES

MRI upregulation [3]: YES
SMILES: Cn1c(=O)ccn([C@@H]2O[C@H](CO)[C@@H](O)[C@H]2O)c1=O [Cmpd 30, 3-methyluridine]
Competition (MR1T cell clones [2]): YES | Reactive T cells isolated (MR1T cell clones [4]): YES

SMILES: Cc1ncnc2nc[nH]c12 [Cmpd 43, 6-Methylpurine]
Competition (MR1T cell clones [2]): YES | MRI downmodulation [3]: YES

SMILES: CN(C)c1ncnc2nc[nH]c12 [Cmpd 44, 6-(Dimethylamino)purine]
Competition (MR1T cell clones [2]): YES | MRI upregulation [3]: YES

MRI downmodulation [3]: YES
SMILES: CC(C)=CCNc1ncnc2[nH]cnc12 [Cmpd 45, N6-(Δ2-Isopent-2-enyl) adenine]
Competition (MR1T cell clones [2]): YES

SMILES: O=c1c(-c2ccc(O)cc2)coc2cc(O[C@@H]3O[C@H](CO)[C@@H](O)[C@H](O)[C@H]3O)ccc12 [Daidzin]
response of MCA2B9 MR1T clone (IFN-γ) (MR1T cell clones [1]; THP-1 cells incubated 18 h with drug (FIG. 7a, b)): increase the response | T cell response in MR1T cell clones (MR1T cell clones [1]): induced a strong T cell response

SMILES: O=c1oc2c(O)c(O)cc3c(=O)oc4c(O)c(O)cc1c4c23 [Ellagic acid, ellagic acid]
stimulation of QY1A16 MR1T clone (IFN-γ) (MR1T cell clones [1]; THP-1 cells incubated 18 h with drug (FIG. 7e)): induces the stimulation | T cell response in MR1T cell clones (MR1T cell clones [1]): induced a strong T cell response

SMILES: N[C@@H](CCC(=O)N[C@@H](CS)C(=O)NCC(=O)O)C(=O)O [GSH, L-glutathione reduced]
MR1T-cell stimulation (IFN-γ) by treated, fixed A375-MR1 cells (MR1T cell clones [5]): significantly less IFN-γ production

SMILES: Cc1onc(C(=O)N2CCN(C(c3ccc(Cl)cc3)c3ccc(Cl)cc3)CC2)c1[N+](=O)[O-] [ML-210]
MR1T-cell stimulation (IFN-γ) by treated, fixed A375-MR1 cells (MR1T cell clones [5]): significantly increased MR1T-cell stimulatory activity

SMILES: COc1c(C)c2c(c(O)c1C/C=C(\C)CCC(=O)O)C(=O)OC2 [Mycophenolic acid]
stimulation of TC5A87 MR1T clone (IFN-γ) (MR1T cell clones [1]): induces the stimulation | T cell response in MR1T cell clones (MR1T cell clones [1]): induced a strong stimulation | reactivity of DGB129 clone to drug-treated THP-1 cells (MR1T cell clones [1]): reacted

SMILES: CC(=O)N[C@@H](CS)C(=O)O [N-acetylcysteine]
MR1T-cell stimulation (IFN-γ) by treated, fixed A375-MR1 cells (MR1T cell clones [5]): significantly less IFN-γ production

SMILES: CC1(C)CC[C@]2(C(=O)O)CC[C@]3(C)C(=CC[C@@H]4[C@@]5(C)CC[C@H](O)C(C)(C)[C@@H]5CC[C@]43C)[C@@H]2C1 [Oleanoic acid, oleanoic acid]
stimulation of TC5A87 MR1T clone (IFN-γ) (MR1T cell clones [1]): induces the stimulation | T cell response in MR1T cell clones (MR1T cell clones [1]): induced a strong T cell response

SMILES: COC(=O)c1ccc([C@H]2c3[nH]c4ccccc4c3C[C@H](C(=O)OC)N2C(=O)CCl)cc1 [RSL3, 1S,3R-RSL3]
MR1T-cell stimulation (IFN-γ) by treated, fixed A375-MR1 cells (MR1T cell clones [5]): significantly increased MR1T-cell stimulatory activity

SMILES: N=C(N)NN [aminoguanidine, aminoguanidine hemisulfate salt]
MR1T-cell stimulation (IFN-γ) by treated, fixed A375-MR1 cells (MR1T cell clones [5]): significant inhibition of IFN-γ production | MAIT cell activation (MAIT clone MRC25): no effect on MAIT cell activation

SMILES: COc1cc(C(C)=O)ccc1O [apocynin]
MR1T-cell stimulation (IFN-γ) by treated, fixed A375-MR1 cells (MR1T cell clones [5]): effective with one T-cell clone

SMILES: CCCCS(=N)(=O)CCC(N)C(=O)O (stereo not drawn) [buthionine sulfoximine]
MR1T-cell stimulation (IFN-γ) by treated, fixed A375-MR1 cells (MR1T cell clones [5]): significant increase

SMILES: COc1cccc2c1C(=O)c1c(O)c3c(c(O)c1C2=O)C[C@@](O)(C(=O)CO)C[C@@H]3O[C@H]1C[C@H](N)[C@H](O)[C@H](C)O1 [doxorubicin, Doxorubicin]
activation of MR1T-cell clones TC5A87, DGB129, MCA3C3 (MR1T cell clones [1]): promoted activation of all three MR1T-cell clones | ROS accumulation (THP-1 cells): significantly increased ROS accumulation

SMILES: NNc1nncc2ccccc12 [hydralazine, hydralazine hydrochloride]
MR1T-cell stimulation (IFN-γ) by treated, fixed A375-MR1 cells (MR1T cell clones [5]): significant inhibition of IFN-γ production | MAIT cell activation (MAIT clone MRC25): no effect on MAIT cell activation

SMILES: O=C(O)CC(S)C(=O)O (stereo not drawn) [mercaptosuccinic acid]
MR1T-cell stimulation (IFN-γ) by treated, fixed A375-MR1 cells (MR1T cell clones [5]): significantly increased MR1T-cell stimulatory activity

SMILES: CC(=O)O[C@H]1C(=O)[C@@]2(C)[C@H]([C@H](OC(=O)c3ccccc3)[C@]3(O)C[C@H](OC(=O)[C@H](O)[C@@H](NC(=O)c4ccccc4)c4ccccc4)C(C)=C1C3(C)C)[C@]1(OC(C)=O)CO[C@@H]1C[C@@H]2O [paclitaxel, Paclitaxel]
activation of MR1T-cell clones TC5A87, DGB129, MCA3C3 (MR1T cell clones [1]): promoted activation of all three MR1T-cell clones | ROS accumulation (THP-1 cells): significantly increased ROS accumulation | MAIT-cell response (MAIT clone MRC25; drug-treated APCs, paclitaxel in presence of nucleosides (FIG. 16C-D)): little but significant stimulation

— US20230099822A1, “MR1 LIGANDS AND PHARMACEUTICAL COMPOSITIONS FOR IMMUNOMODULATION” (UNIVERSITÄT BASEL, priority 2020, published 2023)
